Test results as given in article PMC6222451, “Novel Potent Hypoglycemic Compounds from Euonymus laxiflorus Champ. and Their Effect on Reducing Plasma Glucose in an ICR Mouse Model” (Molecules : A Journal of Synthetic Chemistry and Natural …, 2018).
Where two headings read alike, the source gives them in different places.

Experiments:
ICR mice = experiment: Starch tolerance test: effect on reducing plasma glucose in ICR mice; type: in vivo, mouse; settings: oral
Text: Animals: seven week-old male ICR (Institute of Cancer Research) mice were purchased from The National Laboratory Animal Center (No. 128, Sec. 2, Academia Rd., Nangang Dist., Taipei City 11529, Taiwan) and tested in accordance with the approval and guidelines of the Institutional Animal Care and Use Committee of the National Research Institute of Chinese Medicine, Ministry of Health and Welfare (IACUC No. 104-706-1, 29 December 2014). […] Distilled water was used to prepare the condensed tannins and acarbose solutions.
Assay: The effect of condensed tannin-ELCTB-3.1.1 on the reduction of plasma glucose in mice was performed according to the experimental animal protocol described by Nguyen et al. (2017) with the use of starch solution (3 g/kg bw) instead of sucrose solution administered to ICR mice.

[1] = target: T1, Saccharomyces cerevisiae (yeast) α-glucosidase (Saccharomyces cerevisiae, UniProt P53341); experiment: α-Glucosidase inhibitory activity determination (pNPG substrate); type: biochemical; settings: for inhibition at 7.81 µg/mL: read-out: Maximum Inhibition (%), recorded at 7.81 μg/mL
T1 construct: purchased Sigma Chemical Co., St. Louis City, MO, USA
T1 sequence (P53341 whole entry): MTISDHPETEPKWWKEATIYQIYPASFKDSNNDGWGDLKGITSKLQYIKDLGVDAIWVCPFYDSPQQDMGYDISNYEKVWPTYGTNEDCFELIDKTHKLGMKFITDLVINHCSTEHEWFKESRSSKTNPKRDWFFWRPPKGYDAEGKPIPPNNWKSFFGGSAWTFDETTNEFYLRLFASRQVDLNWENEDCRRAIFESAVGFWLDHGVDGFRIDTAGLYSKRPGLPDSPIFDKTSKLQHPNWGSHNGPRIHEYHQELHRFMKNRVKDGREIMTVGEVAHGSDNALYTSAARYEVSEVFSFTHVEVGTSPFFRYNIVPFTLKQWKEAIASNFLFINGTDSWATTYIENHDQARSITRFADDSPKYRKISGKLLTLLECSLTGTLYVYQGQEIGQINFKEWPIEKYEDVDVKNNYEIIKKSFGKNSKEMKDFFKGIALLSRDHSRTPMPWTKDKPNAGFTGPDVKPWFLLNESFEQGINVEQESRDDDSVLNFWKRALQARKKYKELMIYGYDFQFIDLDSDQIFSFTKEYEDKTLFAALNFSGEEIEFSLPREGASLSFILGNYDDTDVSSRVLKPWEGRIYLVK
Experimental: The α-glucosidase inhibitory activity was closely detected following the method described in detail by Nguyen et al. (2018). The mixture of 50 μL α-glucosidase, 50 μL sample solutions, 100 μL buffer was pre-incubated at 37 °C for 20 min; the reaction then started when 50 μL of p-nitrophenyl glucopyranoside (10 mmol/L) was added to the mixture. After incubation at the same temperature for 30 min, the reaction was stopped by adding 100 μL Na2CO3 solution (1 mol/L) to the reaction mixture; the absorbance of this final mixture was then measured at 410 nm (A). The control group also underwent the same described method with the use of 50 μL buffer instead of 50 μL sample solutions; the absorbance was recorded at 410 nm (B). The aGI activity (%) was calculated using the following equation: aGI (%) = (A − B)/ A × 100.
The inhibition was also expressed as IC50 value determined as per the previous study. The enzyme and the samples were prepared in 0.1 mol/L potassium phosphate buffer (pH 7). […]

[2] = read-out: Maximum Inhibition (%), recorded at 250 μg/mL
[3] = read-out: α-glucosidase inhibition, aGI (%), primary test of 26 isolated compounds at 250 µg/mL (Figure 2)
[4] = IC50, isolated compounds (Table 3)
[5] = isolated compounds (Table 3), read-out: IC50 (converted)

C[C@H]1O[C@H](O[C@H]2[C@H](O)[C@@H](O)[C@@H](O[C@H]3[C@H](O)[C@@H](O)C(O)O[C@@H]3CO)O[C@@H]2CO)[C@H](O)[C@@H](O)[C@@H]1N[C@H]1C=C(CO)[C@@H](O)[C@H](O)[C@H]1O (stereo partly shown) [Acarbose, reference compound]
mice with symptoms of diarrhea (ICR mice; acarbose 25 mg/kg bw): 20% | mice with symptoms of diarrhea (ICR mice; acarbose 50 mg/kg bw): 50% | inhibition at 2500 µg/mL ([1]; read-out: Maximum Inhibition (%), acarbose, recorded at 2500 μg/mL (Table 3)): 65 ± 2.7% | inhibition at 2500 µg/mL ([1]; read-out: α-Glucosidase Inhibitory Activity Inhibition (%), yeast α-glucosidase, acarbose tested at 2500 μg/mL (Table 2)): 64 ± 2.4%

CC1=CC(=O)OCC1O[C@@H]1O[C@H](CO)[C@@H](O)[C@H](O)[C@H]1O (stereo partly drawn) [Compound 1, Walterolactone A/B β-D-pyranoglucoside]
IC50 [1]: 3.12 µM | inhibition at 7.81 µg/mL [1]: 100 ± 5.8%

COc1cc(O[C@@H]2O[C@H](CO)[C@@H](O)[C@H](O)[C@H]2O)cc(OC)c1O [Compound 9, 1-β-D-glucopyranosyloxy-3,5-dimethoxy-4-hydroxybenzene]
inhibition at 250 µg/mL [1, 2]: ≤ 38% | inhibition at 250 µg/mL [1, 3]: 38 to 60%

Oc1cc(O)c2c(c1)O[C@@H](c1cc(O)c(O)c(O)c1)[C@H](O)C2 [Compound 10, (−)-Gallocatechin]
IC50 [1, 4]: 38.9 µM | inhibition at 250 µg/mL [1, 2]: 93 ± 2.9%

O=C(c1ccc(O)cc1)C(O)CO[C@@H]1O[C@H](CO)[C@@H](O)[C@H](O)[C@H]1O (stereo partly drawn) [Compound 11, Schweinfurthinol 9-O-β-D-pyranoglucoside]
IC50 [1]: 91.8 µM | inhibition at 250 µg/mL [1, 2]: 87 ± 4% | inhibition at 250 µg/mL [1, 3]: 90 to 100%

CC(C)=CC(=O)O[C@@H]1[C@H](O)[C@H](O)[C@@H](O)[C@H](O)[C@H]1O [Compound 12, 1-O-(3-methyl)-butenoyl-myo-inositol]
IC50 [1, 5]: 103 µM | inhibition at 250 µg/mL [1, 2]: 96 ± 6.9%

COc1cc(O)cc(OC)c1O[C@@H]1O[C@H](CO)[C@@H](O)[C@H](O)[C@H]1O [Compound 14, Leonuriside]
IC50 [1, 5]: 2.79 µM | inhibition at 7.81 µg/mL [1]: 99 ± 6.4%

Oc1cc(O)c2c(c1)O[C@H](c1ccc(O)c(O)c1)[C@@H](O)C2 [Compound 19, (+)-Catechin]
IC50 [1, 5]: 0.389 µM | inhibition at 0.977 µg/mL ([1]; read-out: Maximum Inhibition (%), recorded at 0.977 μg/mL): 100 ± 5.9%

COC(=O)c1cc(O)c(O)c(O)c1 [Compound 20, Methyl galloate]
IC50 [1, 4]: 597 µM | inhibition at 250 µg/mL [1, 2]: 58 ± 1.2%

Oc1cc(O)c2c(c1)O[C@@H](c1ccc(O)c(O)c1)[C@H](O)C2 [Compound 23, (−)-Catechin]
inhibition at 250 µg/mL [1, 2]: ≤ 38%
